Source: patent publication US20240108641A1, “COMPOSITIONS FOR ORAL ADMINISTRATION OF ZOLEDRONIC ACID OR RELATED COMPOUNDS FOR TREATING DISEASE” (ANTECIP BIOVENTURES II LLC, priority 2012, published 2024)

What was measured:
[1] = tested on: complex regional pain syndrome (CRPS); experiment: rat tibia fracture model of CRPS, dosing starting four weeks after fracture; type: in vivo
Experimental: A study was performed to evaluate the efficacy of bisphosphonates such as oral zoledronic acid in inhibiting immune responses and pain behavior in a rat fracture model of CRPS.
The effect of orally administered zoledronic acid was examined in the rat tibia fracture model of complex regional pain syndrome (CRPS). CRPS was induced in the rats by fracturing the right distal tibias of the animals and casting the fractured hindpaws for 4 weeks, as described in Guo T Z et al. (Pain. 2004; 108: 95-107).
Starting four weeks after fracture and casting, animals were orally administered either vehicle (control) or zoledronic acid, a dose of 21 mg/kg on the first day and 3 mg/kg/day daily thereafter, or distilled water for 3 weeks (weeks 4-7 post-fracture). Drug was dissolved in distilled water and administered by gavage. Animals were fasted for 4 hours before and 2 hours after dosing. At the end of the 21-day period, casts were removed, and on the following day, the rats were tested for hindpaw pain, edema, and warmth.

[2] = tested on: chronic low back pain (LBP) and Modic changes; experiment: randomized placebo-controlled trial in chronic low back pain with Modic changes, low back symptoms and lumbar flexibility; type: in vivo, human; details: for Fingers-to-floor, Unadjusted analyses Difference (95% CI) / Intensity of LBP, Unadjusted analyses Difference (95% CI) / Intensity of leg pain, Unadjusted analyses Difference (95% CI) / Oswestry disability index, Unadjusted analyses Difference (95% CI) / Sidebending to left, Unadjusted analyses Difference (95% CI) / Sidebending to right, Unadjusted analyses Difference (95% CI) / Fingers-to-floor, Adjusted analyses Difference (95% CI) / Intensity of LBP, Adjusted analyses Difference (95% CI) / Intensity of leg pain, Adjusted analyses Difference (95% CI) / Oswestry disability index, Adjusted analyses Difference (95% CI) / Sidebending to left, Adjusted analyses Difference (95% CI) / Sidebending to right, Adjusted analyses Difference (95% CI): ZA versus placebo; for Fingers-to-floor, Adjusted analyses Difference (95% CI) / Intensity of LBP, Adjusted analyses Difference (95% CI) / Intensity of leg pain, Adjusted analyses Difference (95% CI) / Oswestry disability index, Adjusted analyses Difference (95% CI) / Sidebending to left, Adjusted analyses Difference (95% CI) / Sidebending to right, Adjusted analyses Difference (95% CI): adjusted for baseline; for Intensity of LBP, Mean (SD) original values: 10 cm VAS
Experimental: A study was performed to evaluate the efficacy of a single intravenous infusion of 5 mg ZA in comparison with intravenous placebo infusion among patients with chronic low back pain (LBP) and Modic changes on MRI. This study was a double-blinded, randomized, placebo-controlled clinical trial in patients with low back pain (LBP). Patients were included in the study if they had low back symptoms for at least three months, an LBP of at least six (6) on a 10-cm Visual Analog Scale (VAS) or an Oswestry Disability Index (ODI) of at least 30%, and an M1, mixed M1/2 or M2 type change on MRI performed within six months at most prior to enrolment.
Patients were excluded from the study if they had renal impairment with reduced creatinine clearance defined as an estimated glomerular filtration rate (eGFR) below 40 ml/min, hypocalcemia, known hypersensitivity to zoledronic acid or other bisphosphonates or ingredients of the infusion product, the presence of red flags, nerve root entrapment or willingness for early retirement. Premenopausal women of childbearing potential were also excluded. Blood samples were taken prior to the infusion to assess the serum concentration of calcium and creatinine. The clinical examination included medical history and clinical assessment of lumbar flexibility, tendon signs, and motor and sensory testing.
After confirmation of eligibility patients were randomized to receive a single intravenous infusion of 5 mg zoledronic acid (n=20) or 100 ml saline as placebo (n=20) over a 15-minute period. Information on use of the concomitant medication and hospital admissions were recorded. Blood samples were taken for the assessment of safety, inflammatory mediators and markers of bone turnover at baseline, one month and one year.
Clinical assessments were performed 14 days before enrolment (screening visit), and follow-up visits at one month and one year after the infusion. The primary outcome was the change in the intensity of LBP on VAS. Secondary outcomes included leg pain intensity, ODI, health-related quality of life assessed with RAND-36, patient-reported sick leaves and lumbar flexibility. These outcome measures were assessed at baseline and at each follow-up. Lumbar flexibility was evaluated using the fingers-to-floor and trunk side bending measures (in cm). The percentage of patients undergoing a 20% relative improvement, the proportion of patients reaching a VAS score of 40 or less in the primary outcome, and patient acceptable symptom state (PASS) were also assessed. Pain medication use was inquired about during the follow-up visits.

[3] = tested on: arthritis pain (mechanical hyperalgesia); experiment: rat complete Freund's adjuvant (CFA) model of arthritis pain; type: in vivo; details: oral administration; day 14 post CFA
Experimental: The effect of orally administered zoledronic acid on arthritis pain was examined in the rat complete Freund's adjuvant (CFA) model of arthritis pain. In this model, injection of 100% complete Freund's adjuvant (CFA) in a 75 μL volume into the left hind paws is followed by a 10-14 day period to allow for the development of arthritis pain. Animals were orally administered vehicle (control), zoledronic acid 54 mg/m^2 (or 9 mg/kg), or zoledronic acid 360 mg/m^2 (or 60 mg/kg), divided in three equal daily doses on the first three days post CFA injection. Drug was dissolved in distilled water and prepared fresh daily. Animals were fasted prior to dosing.
Arthritis pain (mechanical hyperalgesia) in the vehicle and drug-treated animals was evaluated on day 14 post CFA injection using a digital Randall-Selitto device (dRS; IITC Life Sciences, Woodland Hills, CA). Animals were placed in a restraint sling that suspended the animal, leaving the hind limbs available for testing. Paw compression threshold was measured by applying increasing pressure to the plantar surface of the hind paw with a dome-shaped tip placed between the 3rd and 4th metatarsus. Pressure was applied gradually over approximately 10 seconds. […]
Reversal of arthritis pain in the ipsilateral (CFA-injected) paw was calculated according to the formula: […]

[4] = oral 21 mg/kg first day then 3 mg/kg/day, weeks 4-7 post-fracture
[5] = 12 mos., single 5 mg IV infusion
[6] = one month, single 5 mg IV infusion

`O=P(O)(O)C(O)(Cn1ccnc1)P(=O)(O)O` [zoledronic acid] was tested, and the hindlimb weight bearing [1, 4] was “over 90 % of normal”, the “overall effect compared to vehicle treated animals” value [1, 4] was “reversed pain and restored weight bearing” and the “von Frey pain thresholds for the right (fracture) hindpaw, change as compared to baseline” value [1, 4] was “over 100%”. For the same compound, the “pain relief, dosing four weeks after fracture versus dosing at the time of injury” value ([1]; oral, FIG. 18) was “significantly greater improvement of pain relief”, the “Fingers-to-floor, Unadjusted analyses Difference (95% CI)” value ([2]; 1 mo.) was 5.0 (−4.8 to 15) cm and the “Intensity of LBP, Unadjusted analyses Difference (95% CI)” value ([2]; 1 mo.) was 1.3 (−0.2 to 2.8). The “Intensity of leg pain, Unadjusted analyses Difference (95% CI)” value ([2]; 1 mo.) was 0.8 (−0.9 to 2.4), the “Oswestry disability index, Unadjusted analyses Difference (95% CI)” value ([2]; 1 mo.) was 4.3 (−2.5 to 11) % and the “Sidebending to left, Unadjusted analyses Difference (95% CI)” value ([2]; 1 mo.) was −1.5 (−3.2 to 0.1) cm. The “Sidebending to right, Unadjusted analyses Difference (95% CI)” value ([2]; 1 mo.) was −2.0 (−4.3 to 0.4) cm, the “Fingers-to-floor, Adjusted analyses Difference (95% CI)” value ([2]; 1 mo.) was 3.6 (−5.0 to 12) cm and the “Intensity of LBP, Adjusted analyses Difference (95% CI)” value ([2]; 1 mo.) was 1.4. For the same compound, the “Intensity of leg pain, Adjusted analyses Difference (95% CI)” value ([2]; 1 mo.) was 0.8 (−0.6 to 2.2), the “Oswestry disability index, Adjusted analyses Difference (95% CI)” value ([2]; 1 mo.) was 6.0% and the “Sidebending to left, Adjusted analyses Difference (95% CI)” value ([2]; 1 mo.) was −1.7 (−3.4 to 0.0) cm. The “Sidebending to right, Adjusted analyses Difference (95% CI)” value ([2]; 1 mo.) was −2.0 (−4.4 to 0.3) cm, the “Intensity of LBP, Adjusted analyses Difference (95% CI)” value ([2]; 1 mo., listed as ZA) was 1.4 (0.01 to 2.9) and the “Oswestry disability index, Adjusted analyses Difference (95% CI)” value ([2]; 1 mo., listed as ZA) was 6.0 (−0.6 to 13) %. The “Fingers-to-floor, Mean (SD) change” value ([2]; 1 mo., single 5 mg IV infusion) was −5.1 (20) cm, the “Fingers-to-floor, Mean (SD) original values” ([2]; 1 mo., single 5 mg IV infusion) was 17 (17) cm and the “Intensity of LBP, Mean (SD) change” value ([2]; 1 mo., single 5 mg IV infusion) was −2.2 (2.7). For the same compound, the “Intensity of leg pain, Mean (SD) change” value ([2]; 1 mo., single 5 mg IV infusion) was −0.6 (2.4), the “Intensity of leg pain, Mean (SD) original values” ([2]; 1 mo., single 5 mg IV infusion) was 2.0 (2.3) and the “Oswestry disability index, Mean (SD) change” value ([2]; 1 mo., single 5 mg IV infusion) was −5.9 (11) %. For the same compound, the “Oswestry disability index, Mean (SD) original values” ([2]; 1 mo., single 5 mg IV infusion) was 24 (10) %, the “Sidebending to left, Mean (SD) change” value ([2]; 1 mo., single 5 mg IV infusion) was 1.1 (3.0) cm and the “Sidebending to left, Mean (SD) original values” ([2]; 1 mo., single 5 mg IV infusion) was 16.1 (5.3) cm. The “Sidebending to right, Mean (SD) change” value ([2]; 1 mo., single 5 mg IV infusion) was 1.5 (4.7) cm, the “Sidebending to right, Mean (SD) original values” ([2]; 1 mo., single 5 mg IV infusion) was 15.7 (5.9) cm and the “Intensity of LBP, Mean (SD) original values” ([2]; 1 mo., single 5 mg IV infusion) was 4.3 (2.3). The “Fingers-to-floor, Unadjusted analyses Difference (95% CI)” value ([2]; 12 mos.) was 7.1 (−4.3 to 18) cm, the “Intensity of LBP, Unadjusted analyses Difference (95% CI)” value ([2]; 12 mos.) was 0.6 (−1.1 to 2.4) and the “Intensity of leg pain, Unadjusted analyses Difference (95% CI)” value ([2]; 12 mos.) was 0.6 (−1.5 to 2.7). For the same compound, the “Oswestry disability index, Unadjusted analyses Difference (95% CI)” value ([2]; 12 mos.) was 3.1 (−5.6 to 12) %, the “Sidebending to left, Unadjusted analyses Difference (95% CI)” value ([2]; 12 mos.) was −0.7 (−3.5 to 2.1) cm and the “Sidebending to right, Unadjusted analyses Difference (95% CI)” value ([2]; 12 mos.) was −1.6 (−4.3 to 1.1) cm. The “Fingers-to-floor, Adjusted analyses Difference (95% CI)” value ([2]; 12 mos.) was 5.3 (−4.5 to 15) cm, the “Intensity of LBP, Adjusted analyses Difference (95% CI)” value ([2]; 12 mos.) was 0.7 and the “Intensity of leg pain, Adjusted analyses Difference (95% CI)” value ([2]; 12 mos.) was 0.5 (−1.3 to 2.2). For the same compound, the “Oswestry disability index, Adjusted analyses Difference (95% CI)” value ([2]; 12 mos.) was 5.1 (−3.4 to 14) %, the “Sidebending to left, Adjusted analyses Difference (95% CI)” value ([2]; 12 mos.) was −1.0 (−3.8 to 1.8) cm and the “Sidebending to right, Adjusted analyses Difference (95% CI)” value ([2]; 12 mos.) was −1.7 (−4.2 to 0.8) cm. For the same compound, the “Intensity of LBP, Adjusted analyses Difference (95% CI)” value ([2]; 12 mos., listed as ZA) was 0.7 (−1.0 to 2.4), the “Fingers-to-floor, Mean (SD) change” value [2, 5] was −6.3 (23) cm and the “Fingers-to-floor, Mean (SD) original values” [2, 5] was 16 (16) cm. The “Intensity of LBP, Mean (SD) change” value [2, 5] was −2.8 (2.9), the “Intensity of leg pain, Mean (SD) change” value [2, 5] was −0.9 (3.4) and the “Intensity of leg pain, Mean (SD) original values” [2, 5] was 2.1 (2.8). For the same compound, the “Oswestry disability index, Mean (SD) change” value [2, 5] was −5.0 (15) %, the “Oswestry disability index, Mean (SD) original values” [2, 5] was 25 (13) % and the “Sidebending to left, Mean (SD) change” value [2, 5] was 1.2 (5.3) cm. For the same compound, the “Sidebending to left, Mean (SD) original values” [2, 5] was 16.2 (6.7) cm, the “Sidebending to right, Mean (SD) change” value [2, 5] was 1.6 (4.8) cm and the “Sidebending to right, Mean (SD) original values” [2, 5] was 15.7 (5.6) cm. For the same compound, the “Intensity of LBP, Mean (SD) original values” [2, 5] was 3.8 (2.5), the “Pain Reduction, VAS Change from Baseline” value ([2]; Baseline VAS < 6, single 5 mg IV infusion) was −0.1 cm and the “Pain Reduction, VAS Change from Baseline” value ([2]; Baseline VAS ≥ 6 and <7, single 5 mg IV infusion) was −2.3 cm. The “Pain Reduction, VAS Change from Baseline” value ([2]; Baseline VAS ≥ 7, single 5 mg IV infusion) was −3.4 cm, the “mean reduction in pain from baseline” value ([2]; baseline pain intensity <6, single 5 mg IV infusion) was 0.1 and the “mean reduction in pain from baseline” value ([2]; baseline pain intensity ≥7, single 5 mg IV infusion) was 3.4. For the same compound, the “proportion of patients reaching patient acceptable symptom state (PASS)” value [2, 6] was 50%, the “proportion of patients with at least 20% improvement in intensity of LBP” value [2, 6] was 55% and the “patients using NSAIDs” value ([2]; one year, single 5 mg IV infusion) was 20%. The “arthritis pain thresholds compared to vehicle” value [3] was “significantly improved”.
